For assay [1], the system named is TGF-β-stimulated SMAD3 phosphorylation in BEAS-2B cells. The assay is described as follows: Cellular ALK5 potency assay, inhibition of TGF-β stimulated pSMAD3 formation in BEAS-2B cells. In kind it is cell-based. Conditions: Homo sapiens; inhibition of TGF-β stimulated pSMAD3 formation, BEAS-2B cells; read-out: BEAS2B pIC50 (converted). In a few lines:
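BEAS-2B human lung epithelial cells pre-treated 1 h at 37° C with compound in HBSS/25 mM HEPES/1% BSA, then stimulated 30 min with 10 ng/mL TGF-β (final). Lysates assayed for pSMAD3 by AlphaLISA; pIC50 from dose-dependent change versus stimulated untreated cells.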

Assay [2] has as its target T1, recombinant human ALK5 (TGF-βR1) protein (Homo sapiens, UniProt P36897).
T1 construct: purchased Life Technologies PR9075A
T1 sequence (P36897 34-503): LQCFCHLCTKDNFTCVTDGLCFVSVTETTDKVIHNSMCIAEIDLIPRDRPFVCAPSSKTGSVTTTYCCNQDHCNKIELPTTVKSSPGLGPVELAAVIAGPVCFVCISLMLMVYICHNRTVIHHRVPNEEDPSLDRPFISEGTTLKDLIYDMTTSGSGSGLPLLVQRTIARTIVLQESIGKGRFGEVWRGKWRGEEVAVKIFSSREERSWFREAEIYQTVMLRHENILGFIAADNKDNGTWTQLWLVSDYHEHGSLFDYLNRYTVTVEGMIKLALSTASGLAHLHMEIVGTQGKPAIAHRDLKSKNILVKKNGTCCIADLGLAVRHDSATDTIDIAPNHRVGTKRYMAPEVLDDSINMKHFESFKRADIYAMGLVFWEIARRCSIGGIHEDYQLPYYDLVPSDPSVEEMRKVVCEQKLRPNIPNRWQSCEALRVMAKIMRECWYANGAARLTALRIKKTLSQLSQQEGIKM
The assay can be described thus: Biochemical ALK5 (TGF-βR1) assay to measure pKi (LANCE Ultra ULight kinase assay). Conditions: apparent pKi from pIC50 by Cheng-Prusoff, read-out: ALK5 pKi (converted). In a few lines: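 After a 60 min room-temperature preincubation of ALK5 with compound, phosphorylation proceeds 60 min at 37 °C on ATP addition (125 μM as 5× stock). Detection: Eu-labelled phospho-Thr1342 Topo IIα antibody in EDTA buffer, pH 7.0; emission 665 nm.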

As to `Cc1cccc(-c2[nH]ncc2-c2ccc3ncc(C(=O)OCCN4CC[C@@H](N)C4)cc3c2)n1` [Compound 1211, 2-[(3R)-3-aminopyrrolidin-1-yl]ethyl 6-[5-(6-methyl-2-pyridyl)-1H-pyrazol-4-yl]quinoline-3-carboxylate], in assay [1], the IC50 is 25.1 to 158 nM. Further, the Ki in assay [2] is 0.0398 to 0.316 nM.
In the same order, the values of `Cc1cccc(-c2n[nH]cc2-c2ccc3ncc(N4CCn5nc(C6=CCNC6)nc5C4)cc3n2)n1` [Compound 362, 7-[2-(2,5-dihydro-1H-pyrrol-3-yl)-6,8-dihydro-5H-[1,2,4]triazolo[1,5-a]pyrazin-7-yl]-2-[3-(6-methyl-2-pyridyl)-1H-pyrazol-4-yl]-1,5-naphthyridine] are 200 to 1260 nM and 0.0398 to 0.316 nM.
For `CNCCn1cc(-c2cnc3ccc(-c4c(-c5cccc(C)n5)n[nH]c4N)nc3c2)cn1` [Compound 512, 4-[7-[1-[2-(methylamino)ethyl]pyrazol-4-yl]-1,5-naphthyridin-2-yl]-3-(6-methyl-2-pyridyl)-1H-pyrazol-5-amine], the IC50 in assay [1] is 200 to 1260 nM. Moreover, the Ki in assay [2] is 0.0398 to 0.316 nM.
For `Cc1cccc(-c2[nH]ncc2-c2ccc3ncc(C(=O)OCCCC4CCNCC4)cc3c2)n1` [Compound 1182, 3-(4-piperidyl)propyl 6-[5-(6-methyl-2-pyridyl)-1H-pyrazol-4-yl]quinoline-3-carboxylate], in that order: 25.1 to 158 nM and 0.0398 to 0.316 nM.
As to `Cc1cccc(-c2[nH]cnc2-c2ccc3ncc(C4=CC[C@H](NC(=O)[C@H]5CCCN5)CC4)cc3c2)n1` [Compound 776, (2R)-N-[(1R)-4-[6-[5-(6-methyl-2-pyridyl)-1H-imidazol-4-yl]-3-quinolyl]cyclohex-3-en-1-yl]pyrrolidine-2-carboxamide], the IC50 in assay [1] is 25.1 to 158 nM. Further, the Ki in assay [2] was 0.0398 to 0.316 nM.
On to `Cc1cccc(-c2[nH]cnc2-c2ccc3ncc(Nc4cnn(C5CNC5)c4)cc3c2)n1` [Compound 227, N-[1-(azetidin-3-yl)pyrazol-4-yl]-6-[5-(6-methyl-2-pyridyl)-1H-imidazol-4-yl]quinolin-3-amine], for which the IC50 in assay [1] is 200 to 1260 nM. For the same compound, in assay [2], the Ki is 0.0398 to 0.316 nM.
For `Cc1cccc(-c2n[nH]cc2-c2ccc3nccc(CNCCCN4CCN(C(C)C)CC4)c3n2)n1` [Compound 819, 3-(4-isopropylpiperazin-1-yl)-N-[[6-[3-(6-methyl-2-pyridyl)-1H-pyrazol-4-yl]-1,5-naphthyridin-4-yl]methyl]propan-1-amine], in assay [1], the IC50 was 25.1 to 158 nM. In addition, the Ki in assay [2] is 0.0398 to 0.316 nM.
In the same order, the values of `Cc1cccc(-c2[nH]cnc2-c2ccc3ncc(C(=O)OCCN)cc3c2)n1` [Compound 1040, 2-aminoethyl 6-[5-(6-methyl-2-pyridyl)-1H-imidazol-4-yl]quinoline-3-carboxylate] are 25.1 to 158 nM and 0.398 to 3.16 nM.
`Cc1cccc(-c2n[nH]cc2-c2ccc3ncc(Nc4ccc(N5CCN(C)CC5)cc4)cc3c2)n1` [Compound 664, N-(4-(4-methylpiperazin-1-yl)phenyl)-6-(3-(6-methylpyridin-2-yl)-1H-pyrazol-4-yl)quinolin-3-amine]: in assay [1], the IC50 is 25.1 to 158 nM. Besides, in assay [2], the Ki was 0.0398 to 0.316 nM.
Take `Cc1cccc(-c2[nH]ncc2-c2ccc3nccc(C(=O)OCC4CCNCC4)c3c2)n1` [Compound 1225, 4-piperidylmethyl 6-[5-(6-methyl-2-pyridyl)-1H-pyrazol-4-yl]quinoline-4-carboxylate]: the IC50 in assay [1] is 25.1 to 158 nM. In addition, in assay [2], the Ki was 0.0398 to 0.316 nM.
For `Cc1cccc(-c2[nH]cnc2-c2ccc3ncc(-c4cnc5c(c4)CCNC5)cc3c2)n1` [Compound 721, 3-[6-[5-(6-methyl-2-pyridyl)-1H-imidazol-4-yl]-3-quinolyl]-5,6,7,8-tetrahydro-1,7-naphthyridine], in that order: 25.1 to 158 nM and 0.0398 to 0.316 nM.
In the same order, the values of `Cc1cccc(-c2n[nH]cc2-c2ccc3nccc(Cl)c3n2)n1` [Compound 851, 8-chloro-2-[3-(6-methyl-2-pyridyl)-1H-pyrazol-4-yl]-1,5-naphthyridine] are less than 20 nM and 0.0398 to 0.316 nM.
Turning to `Cc1cccc(-c2[nH]cnc2-c2ccc3ncc(-c4csc(C(=O)OC5CCNCC5)c4)cc3c2)n1` [Compound 751, 4-piperidyl 4-[6-[5-(6-methyl-2-pyridyl)-1H-imidazol-4-yl]-3-quinolyl]thiophene-2-carboxylate], the IC50 in assay [1] is 25.1 to 158 nM. Moreover, in assay [2], the Ki is less than 0.0316 nM.
Turning to `Cc1cccc(-c2[nH]cnc2-c2ccc3ncc(C4=CCC(C(=O)OCC5CNC5)CC4)cc3c2)n1` (stereo not shown) [Compound 36, azetidin-3-ylmethyl 4-[6-[5-(6-methyl-2-pyridyl)-1H-imidazol-4-yl]-3-quinolyl]cyclohex-3-ene-1-carboxylate], the IC50 in assay [1] is 25.1 to 158 nM. Further, in assay [2], the Ki is 0.0398 to 0.316 nM.
As to `Cc1cccc(-c2[nH]cnc2-c2ccc3ncc(C(=O)OC[C@@H]4CCCNC4)cc3c2)n1` [Compound 877, (R)-piperidin-3-ylmethyl 6-(5-(6-methylpyridin-2-yl)-1H-imidazol-4-yl)quinoline-3-carboxylate], the IC50 in assay [1] was 25.1 to 158 nM. Further, the Ki in assay [2] is 0.0398 to 0.316 nM.
For the compound `Cc1cccc(-c2n[nH]cc2-c2ccc3ncc(N4CCCN(C)C(C)C4)cc3n2)n1` (racemic) [Compound 19, 2-[3-(6-methyl-2-pyridyl)-1H-pyrazol-4-yl]-7-[rac-(3S)-3,4-dimethyl-1,4-diazepan-1-yl]-1,5-naphthyridine], in assay [1], the IC50 is 25.1 to 158 nM. For the same compound, the Ki in assay [2] was 0.0398 to 0.316 nM.
In the same order, the values of `Cc1cccc(-c2[nH]cnc2-c2ccc3ncc(-c4cnc(C(=O)OC5CCNCC5)nc4)cc3c2)n1` [Compound 1131, 4-piperidyl 5-[6-[5-(6-methyl-2-pyridyl)-1H-imidazol-4-yl]-3-quinolyl]pyrimidine-2-carboxylate] are 200 to 1260 nM and 0.0398 to 0.316 nM.
Take `Cc1cccc(-c2[nH]cnc2-c2ccc3ncc(C4=CCN(C)C4)cc3c2)n1` [Compound 16, 3-(1-methyl-2,5-dihydropyrrol-3-yl)-6-[5-(6-methyl-2-pyridyl)-1H-imidazol-4-yl]quinoline]: the IC50 in assay [1] was less than 20 nM. In addition, the Ki in assay [2] was less than 0.0316 nM.
For `Cc1cccc(-c2nnn(Cc3ccccc3)c2-c2ccc3ncc(N4CCC(N5CCN(C)CC5)CC4)cc3c2)n1` [Compound 533, 6-[3-benzyl-5-(6-methyl-2-pyridyl)triazol-4-yl]-3-[4-(4-methylpiperazin-1-yl)-1-piperidyl]quinoline], in that order: 200 to 1260 nM and 0.0398 to 0.316 nM.
In the same order, the values of `Cc1cccc(-c2[nH]cnc2-c2ccc3ncc(C(=O)OCC45CCC(CC4)N5)cc3c2)n1` [Compound 780, 7-azabicyclo[2.2.1]heptan-1-ylmethyl 6-[5-(6-methyl-2-pyridyl)-1H-imidazol-4-yl]quinoline-3-carboxylate] are 25.1 to 158 nM and 0.398 to 3.16 nM.
In the case of `Cc1cccc(-c2n[nH]cc2-c2ccc3ncc(N4CCN(CCNC(C)C)CC4)cc3n2)n1` [Compound 637, N-[2-[4-[6-[3-(6-methyl-2-pyridyl)-1H-pyrazol-4-yl]-1,5-naphthyridin-3-yl]piperazin-1-yl]ethyl]propan-2-amine], the IC50 in assay [1] was 25.1 to 158 nM. Also, in assay [2], the Ki is 0.0398 to 0.316 nM.
As for `CNCCn1cc(-c2cnc3ccc(-c4c[nH]nc4-c4cccc(C)n4)nc3c2)nn1` [Compound 554, N-methyl-2-[4-[6-[3-(6-methyl-2-pyridyl)-1H-pyrazol-4-yl]-1,5-naphthyridin-3-yl]triazol-1-yl]ethanamine], the IC50 in assay [1] was 25.1 to 158 nM. For the same compound, the Ki in assay [2] was less than 0.0316 nM.
Consider `Cc1cccc(-c2n[nH]cc2-c2ccc3ncc(-c4ncc5n4CCNC5)cc3n2)n1` [Compound 143, 2-[3-(6-methyl-2-pyridyl)-1H-pyrazol-4-yl]-7-(5,6,7,8-tetrahydroimidazo[1,5-a]pyrazin-3-yl)-1,5-naphthyridine], for which the IC50 in assay [1] was 200 to 1260 nM. For the same compound, the Ki in assay [2] was 0.0398 to 0.316 nM.
For `Cc1nc(-c2n[nH]cc2-c2ccc3ncc(N4CCNCC4)cc3n2)ccc1F` [Compound 661, 2-[3-(5-fluoro-6-methyl-2-pyridyl)-1H-pyrazol-4-yl]-7-piperazin-1-yl-1,5-naphthyridine], the IC50 in assay [1] was less than 20 nM. Also, in assay [2], the Ki is 0.0398 to 0.316 nM.
As to `Cc1nc(-c2nc3ccccn3c2-c2ccc3ncc(-c4cn[nH]c4)cc3n2)ccc1F` [Compound 169, 2-[2-(5-fluoro-6-methyl-2-pyridyl)imidazo[1,2-a]pyridin-3-yl]-7-(1H-pyrazol-4-yl)-1,5-naphthyridine], the IC50 in assay [1] is less than 20 nM. Also, the Ki in assay [2] was 0.0398 to 0.316 nM.
In the same order, the values of `Cc1cccc(-c2[nH]cnc2-c2ccc3ncc(-c4cn[nH]c4)cc3n2)n1` [Compound 644, 2-(5-(6-methylpyridin-2-yl)-1H-imidazol-4-yl)-7-(1H-pyrazol-4-yl)-1,5-naphthyridine] are less than 20 nM and less than 0.0316 nM.

(Values after US11590116B2 (THERAVANCE BIOPHARMA R&D IP, LLC, priority 2019, dated 2023).)
